Test results taken from publication PMC9516332 (Frontiers in Oncology, 2022).
Where two headings read alike, the source gives them in different places.

Tests used:
AP-1060 (ETV6-NTRK3) = assay: Cell viability assay; conditions: read-out: IC50 in cell proliferation assay
134 cancer cell lines = assay: Cell viability assay (ATPlite, 72 hours), IC50 on cancer cell line panel

## Cn1cnc2c(F)c(Nc3ccc(Br)cc3Cl)c(C(=O)NOCCO)cc21 [selumetinib]
AP-1060 (ETV6-NTRK3)
  IC50: > 31600 nM
134 cancer cell lines; HEC-6, read-out: IC50 in cell proliferation assay, HEC-6 cell line (EGFR p.A289V)
  IC50: > 31600 nM
134 cancer cell lines; Homo sapiens, 769-P, read-out: IC50 in cell proliferation assay, cell line 769-P
  IC50: 665 nM
134 cancer cell lines; Homo sapiens, 786-0, read-out: IC50 in cell proliferation assay, cell line 786-O
  IC50: > 31600 nM
134 cancer cell lines; Homo sapiens, A 172, read-out: IC50 in cell proliferation assay, cell line A-172
  IC50: 25300 nM
134 cancer cell lines; Homo sapiens, A204, read-out: IC50 in cell proliferation assay, cell line A-204
  IC50: > 31600 nM
134 cancer cell lines; Homo sapiens, A498, read-out: IC50 in cell proliferation assay, cell line A-498
  IC50: 137 nM
134 cancer cell lines; Homo sapiens, A549, read-out: IC50 in cell proliferation assay, cell line A-549
  IC50: 132 nM
134 cancer cell lines; Homo sapiens, A704, read-out: IC50 in cell proliferation assay, cell line A-704
  IC50: > 31600 nM
134 cancer cell lines; Homo sapiens, A-375, read-out: IC50 in cell proliferation assay, cell line A-375 (BRAF p.V600E)
  IC50: 145 nM
134 cancer cell lines; Homo sapiens, A-427, read-out: IC50 in cell proliferation assay, cell line A-427
  IC50: 1340 nM
134 cancer cell lines; Homo sapiens, ACHN, read-out: IC50 in cell proliferation assay, cell line ACHN
  IC50: 14400 nM
134 cancer cell lines; Homo sapiens, AN3-CA, read-out: IC50 in cell proliferation assay, cell line AN3-CA (FGFR2 p.N549K)
  IC50: 2330 nM
134 cancer cell lines; Homo sapiens, ASPC1, read-out: IC50 in cell proliferation assay, cell line AsPC-1
  IC50: 210 nM
134 cancer cell lines; Homo sapiens, AU565, read-out: IC50 in cell proliferation assay, cell line AU565 (ERBB2 amplification)
  IC50: > 31600 nM
134 cancer cell lines; Homo sapiens, BT-20, read-out: IC50 in cell proliferation assay, cell line BT-20
  IC50: 9260 nM
134 cancer cell lines; Homo sapiens, BT-474, read-out: IC50 in cell proliferation assay, cell line BT-474 (ERBB2 amplification)
  IC50: > 31600 nM
134 cancer cell lines; Homo sapiens, BT-549, read-out: IC50 in cell proliferation assay, cell line BT-549
  IC50: > 31600 nM
134 cancer cell lines; Homo sapiens, BXPC-3, read-out: IC50 in cell proliferation assay, cell line BxPC-3
  IC50: 472 nM
134 cancer cell lines; Homo sapiens, C-33-A, read-out: IC50 in cell proliferation assay, cell line C-33 A
  IC50: 2.72 nM
134 cancer cell lines; Homo sapiens, CAL-27, read-out: IC50 in cell proliferation assay, cell line CAL-27
  IC50: 61 nM
134 cancer cell lines; Homo sapiens, CCF-STTG1, read-out: IC50 in cell proliferation assay, cell line CCF-STTG1
  IC50: > 31600 nM
134 cancer cell lines; Homo sapiens, CCRF-CEM, read-out: IC50 in cell proliferation assay, cell line CCRF-CEM
  IC50: > 31600 nM
134 cancer cell lines; Homo sapiens, COLO 205, read-out: IC50 in cell proliferation assay, cell line COLO 205 (BRAF p.V600E)
  IC50: 38 nM
134 cancer cell lines; Homo sapiens, COLO-829, read-out: IC50 in cell proliferation assay, cell line COLO 829 (BRAF p.V600E)
  IC50: 117 nM
134 cancer cell lines; Homo sapiens, DLD-1, read-out: IC50 in cell proliferation assay, cell line DLD-1
  IC50: 21400 nM
134 cancer cell lines; Homo sapiens, DU-4475, read-out: IC50 in cell proliferation assay, cell line DU4475 (BRAF p.V600E)
  IC50: 88 nM
134 cancer cell lines; Homo sapiens, Daoy, read-out: IC50 in cell proliferation assay, cell line Daoy
  IC50: > 31600 nM
134 cancer cell lines; Homo sapiens, DoTc2-4510, read-out: IC50 in cell proliferation assay, cell line DoTc2 4510
  IC50: 32 nM
134 cancer cell lines; Homo sapiens, EOL1, read-out: IC50 in cell proliferation assay, cell line EoL-1 (FIP1L1-PDGFRA)
  IC50: 92 nM
134 cancer cell lines; Homo sapiens, FaDu, read-out: IC50 in cell proliferation assay, cell line FaDu
  IC50: 73 nM
134 cancer cell lines; Homo sapiens, G-361, read-out: IC50 in cell proliferation assay, cell line G-361 (BRAF p.V600E)
  IC50: 225 nM
134 cancer cell lines; Homo sapiens, HCC827, read-out: IC50 in cell proliferation assay, cell line HCC827 (EGFR exon19del)
  IC50: 9710 nM
134 cancer cell lines; Homo sapiens, HCC4006, read-out: IC50 in cell proliferation assay, cell line HCC4006 (EGFR exon19del)
  IC50: 26800 nM
134 cancer cell lines; Homo sapiens, HCT-15, read-out: IC50 in cell proliferation assay, cell line HCT 15
  IC50: > 31600 nM
134 cancer cell lines; Homo sapiens, HCT-116, read-out: IC50 in cell proliferation assay, cell line HCT 116
  IC50: 2.26 nM
134 cancer cell lines; Homo sapiens, HEC-1, read-out: IC50 in cell proliferation assay, HEC-1 cell line
  IC50: > 31600 nM
134 cancer cell lines; Homo sapiens, HEC-1B, read-out: IC50 in cell proliferation assay, HEC-1-B cell line (EGFR p.A864V)
  IC50: 27 nM
134 cancer cell lines; Homo sapiens, HL-60, read-out: IC50 in cell proliferation assay, HL-60 cell line
  IC50: 13 nM
134 cancer cell lines; Homo sapiens, HT, read-out: IC50 in cell proliferation assay, HT cell line
  IC50: 14800 nM
134 cancer cell lines; Homo sapiens, HT-1080, read-out: IC50 in cell proliferation assay, HT-1080 cell line
  IC50: 132 nM
134 cancer cell lines; Homo sapiens, Hs746T, read-out: IC50 in cell proliferation assay, Hs 746.T cell line (MET exon14skip + amplification)
  IC50: 19400 nM
134 cancer cell lines; Homo sapiens, Hs-578T, read-out: IC50 in cell proliferation assay, Hs 578T cell line
  IC50: 78 nM
134 cancer cell lines; Homo sapiens, HuTu80, read-out: IC50 in cell proliferation assay, HuTu 80 cell line
  IC50: 413 nM
134 cancer cell lines; Homo sapiens, J82, read-out: IC50 in cell proliferation assay, J82 cell line
  IC50: 265 nM
134 cancer cell lines; Homo sapiens, Jurkat E6.1, read-out: IC50 in cell proliferation assay, Jurkat E6.1 cell line
  IC50: > 31600 nM
134 cancer cell lines; Homo sapiens, K562, read-out: IC50 in cell proliferation assay, K-562 cell line
  IC50: 241 nM
134 cancer cell lines; Homo sapiens, KATO III, read-out: IC50 in cell proliferation assay, KATO III cell line (FGFR2 amplification)
  IC50: 16500 nM
134 cancer cell lines; Homo sapiens, KG-1, read-out: IC50 in cell proliferation assay, KG-1 cell line (FGFR1OP2-FGFR1)
  IC50: 10 nM
134 cancer cell lines; Homo sapiens, KLE, read-out: IC50 in cell proliferation assay, KLE cell line
  IC50: > 31600 nM
134 cancer cell lines; Homo sapiens, KMS-11, read-out: IC50 in cell proliferation assay, KMS-11 cell line (FGFR3 p.Y373C)
  IC50: > 31600 nM
134 cancer cell lines; Homo sapiens, KU812, read-out: IC50 in cell proliferation assay, Ku812 cell line
  IC50: 73 nM
134 cancer cell lines; Homo sapiens, Kasumi 1, read-out: IC50 in cell proliferation assay, Kasumi-1 cell line (KIT p.N822K)
  IC50: 345 nM
134 cancer cell lines; Homo sapiens, LC-2-ad, read-out: IC50 in cell proliferation assay, LC-2/ad cell line (CCDC6-RET)
  IC50: 31000 nM
134 cancer cell lines; Homo sapiens, LNCaP-Clone-FGC, read-out: IC50 in cell proliferation assay, LNCaP clone FGC cell line
  IC50: > 31600 nM
134 cancer cell lines; Homo sapiens, LS174T, read-out: IC50 in cell proliferation assay, LS174T cell line
  IC50: 177 nM
134 cancer cell lines; Homo sapiens, LS-411N, read-out: IC50 in cell proliferation assay, LS411N cell line (BRAF p.V600E)
  IC50: 75 nM
134 cancer cell lines; Homo sapiens, LoVo, read-out: IC50 in cell proliferation assay, LoVo cell line
  IC50: 34 nM
134 cancer cell lines; Homo sapiens, MCF7, read-out: IC50 in cell proliferation assay, MCF-7 cell line
  IC50: > 31600 nM
134 cancer cell lines; Homo sapiens, MDA-MB-231, read-out: IC50 in cell proliferation assay, MDA-MB-231 cell line
  IC50: 1000 nM
134 cancer cell lines; Homo sapiens, MDA-MB-453, read-out: IC50 in cell proliferation assay, MDA-MB-453 cell line
  IC50: 9170 nM
134 cancer cell lines; Homo sapiens, MDA-MB-468, read-out: IC50 in cell proliferation assay, MDA-MB-468 cell line
  IC50: > 31600 nM
134 cancer cell lines; Homo sapiens, MG-63, read-out: IC50 in cell proliferation assay, MG-63 cell line
  IC50: 6090 nM
134 cancer cell lines; Homo sapiens, MIA PaCa-2, read-out: IC50 in cell proliferation assay, MIA PaCa-2 cell line
  IC50: 221 nM
134 cancer cell lines; Homo sapiens, MKN-45, read-out: IC50 in cell proliferation assay, MKN45 cell line (MET amplification)
  IC50: 2680 nM
134 cancer cell lines; Homo sapiens, MOLM-13, read-out: IC50 in cell proliferation assay, MOLM-13 cell line (FLT3 ITD)
  IC50: 822 nM
134 cancer cell lines; Homo sapiens, MOLT-4, read-out: IC50 in cell proliferation assay, MOLT-4 cell line
  IC50: > 31600 nM
